Here are results for 4 compounds from PubChem BioAssay AID1259407 (Chemical Carcinogenesis Research Information System (CCRIS), 2018).

The test system of the data set is CCRIS mutagenicity, Ames/micronucleus/aberration tests. Description: CCRIS mutagenicity studies.
[1] abbreviates: Test System: AMES SALMONELLA TYPHIMURIUM, Strain/Indicator: TA98, Metabolic Activation: NONE, Method: STANDARD PLATE.
[2] abbreviates: Test System: AMES SALMONELLA TYPHIMURIUM, Strain/Indicator: TA98, Metabolic Activation: RAT, LIVER, S-9, AROCLOR 1254, Method: STANDARD PLATE.

Activity calls are given as the source filed them. The rule behind the calls is not given here.

For the compound `Cl/C=C/C[N+]12CN3CN(CN(C3)C1)C2`, the mutagenic call is, setting by setting: (Test System: AMES SALMONELLA TYPHIMURIUM, Strain/Indicator: TA97, Metabolic Activation: HAMSTER, LIVER, S-9, AROCLOR 1254 (5, 10 OR 30%), Method: PREINCUBATION) “inactive; negative”; (Test System: AMES SALMONELLA TYPHIMURIUM, Strain/Indicator: TA97, Metabolic Activation: NONE, Method: PREINCUBATION) “inactive; negative”; (Test System: AMES SALMONELLA TYPHIMURIUM, Strain/Indicator: TA97, Metabolic Activation: RAT, LIVER, S-9, AROCLOR 1254 (5, 10 OR 30%), Method: PREINCUBATION) “inactive; negative”; (Test System: AMES SALMONELLA TYPHIMURIUM, Strain/Indicator: TA98, Metabolic Activation: HAMSTER, LIVER, S-9, AROCLOR 1254 (5 OR 30%), Method: PREINCUBATION) “inactive; negative”; (Test System: AMES SALMONELLA TYPHIMURIUM, Strain/Indicator: TA98, Metabolic Activation: HAMSTER, LIVER, S-9, AROCLOR 1254 (10%), Method: PREINCUBATION) “inactive; negative”; (Test System: AMES SALMONELLA TYPHIMURIUM, Strain/Indicator: TA98, Metabolic Activation: HAMSTER, LIVER, S-9, AROCLOR 1254, Method: STANDARD PLATE) “inactive; negative”. For the same compound, the mutagenic call was “active; positive” (Test System: AMES SALMONELLA TYPHIMURIUM, Strain/Indicator: TA98, Metabolic Activation: NONE, Method: PREINCUBATION); “inactive; negative” under setting [1]; “inactive; negative” (Test System: AMES SALMONELLA TYPHIMURIUM, Strain/Indicator: TA98, Metabolic Activation: RAT, LIVER, S-9, AROCLOR 1254 (5 OR 30%), Method: PREINCUBATION); “inactive; negative” (Test System: AMES SALMONELLA TYPHIMURIUM, Strain/Indicator: TA98, Metabolic Activation: RAT, LIVER, S-9, AROCLOR 1254 (10%), Method: PREINCUBATION); “inactive; negative” under setting [2]; “inactive; negative” (Test System: AMES SALMONELLA TYPHIMURIUM, Strain/Indicator: TA100, Metabolic Activation: HAMSTER, LIVER, S-9, AROCLOR 1254 (5 OR 30%), Method: PREINCUBATION). The mutagenic call is, setting by setting: (Test System: AMES SALMONELLA TYPHIMURIUM, Strain/Indicator: TA100, Metabolic Activation: HAMSTER, LIVER, S-9, AROCLOR 1254 (10%), Method: PREINCUBATION) “inactive; negative”; (Test System: AMES SALMONELLA TYPHIMURIUM, Strain/Indicator: TA100, Metabolic Activation: HAMSTER, LIVER, S-9, AROCLOR 1254, Method: STANDARD PLATE) “inactive; negative”; (Test System: AMES SALMONELLA TYPHIMURIUM, Strain/Indicator: TA100, Metabolic Activation: NONE, Method: PREINCUBATION) “inactive; negative”; (Test System: AMES SALMONELLA TYPHIMURIUM, Strain/Indicator: TA100, Metabolic Activation: NONE, Method: STANDARD PLATE) “inactive; negative”; (Test System: AMES SALMONELLA TYPHIMURIUM, Strain/Indicator: TA100, Metabolic Activation: RAT, LIVER, S-9, AROCLOR 1254 (5 OR 30%), Method: PREINCUBATION) “inactive; negative”; (Test System: AMES SALMONELLA TYPHIMURIUM, Strain/Indicator: TA100, Metabolic Activation: RAT, LIVER, S-9, AROCLOR 1254 (10%), Method: PREINCUBATION) “inactive; negative”. Also, the mutagenic call (Test System: AMES SALMONELLA TYPHIMURIUM, Strain/Indicator: TA100, Metabolic Activation: RAT, LIVER, S-9, AROCLOR 1254, Method: STANDARD PLATE) was “inactive; negative”; the mutagenic call (Test System: AMES SALMONELLA TYPHIMURIUM, Strain/Indicator: TA1535, Metabolic Activation: HAMSTER, LIVER, S-9, AROCLOR 1254 (10%), Method: PREINCUBATION) was “inactive; negative”; the mutagenic call (Test System: AMES SALMONELLA TYPHIMURIUM, Strain/Indicator: TA1535, Metabolic Activation: HAMSTER, LIVER, S-9, AROCLOR 1254, Method: STANDARD PLATE) is “inactive; negative”; the mutagenic call (Test System: AMES SALMONELLA TYPHIMURIUM, Strain/Indicator: TA1535, Metabolic Activation: NONE, Method: PREINCUBATION) is “inactive; negative”; the mutagenic call (Test System: AMES SALMONELLA TYPHIMURIUM, Strain/Indicator: TA1535, Metabolic Activation: NONE, Method: STANDARD PLATE) is “inactive; negative”; the mutagenic call (Test System: AMES SALMONELLA TYPHIMURIUM, Strain/Indicator: TA1535, Metabolic Activation: RAT, LIVER, S-9, AROCLOR 1254 (10%), Method: PREINCUBATION) was “inactive; negative”. In addition, the mutagenic call is “inactive; negative” (Test System: AMES SALMONELLA TYPHIMURIUM, Strain/Indicator: TA1535, Metabolic Activation: RAT, LIVER, S-9, AROCLOR 1254, Method: STANDARD PLATE); “inactive; negative” (Test System: AMES SALMONELLA TYPHIMURIUM, Strain/Indicator: TA1537, Metabolic Activation: HAMSTER, LIVER, S-9, AROCLOR 1254 (5, 10 OR 30%), Method: PREINCUBATION); “inactive; negative” (Test System: AMES SALMONELLA TYPHIMURIUM, Strain/Indicator: TA1537, Metabolic Activation: HAMSTER, LIVER, S-9, AROCLOR 1254, Method: STANDARD PLATE); “inactive; negative” (Test System: AMES SALMONELLA TYPHIMURIUM, Strain/Indicator: TA1537, Metabolic Activation: NONE, Method: STANDARD PLATE); “inactive; negative” (Test System: AMES SALMONELLA TYPHIMURIUM, Strain/Indicator: TA1537, Metabolic Activation: RAT, LIVER, S-9, AROCLOR 1254 (5, 10 OR 30%), Method: PREINCUBATION); “inactive; negative” (Test System: AMES SALMONELLA TYPHIMURIUM, Strain/Indicator: TA1537, Metabolic Activation: RAT, LIVER, S-9, AROCLOR 1254, Method: STANDARD PLATE). Also, the mutagenic call (Test System: AMES SALMONELLA TYPHIMURIUM, Strain/Indicator: TA1538, Metabolic Activation: HAMSTER, LIVER, S-9, AROCLOR 1254, Method: STANDARD PLATE) was “inactive; negative”; the mutagenic call (Test System: AMES SALMONELLA TYPHIMURIUM, Strain/Indicator: TA1538, Metabolic Activation: NONE, Method: STANDARD PLATE) is “inactive; negative”; the mutagenic call (Test System: AMES SALMONELLA TYPHIMURIUM, Strain/Indicator: TA1538, Metabolic Activation: RAT, LIVER, S-9, AROCLOR 1254, Method: STANDARD PLATE) was “inactive; negative”; the mutagenic call (Test System: MOUSE LYMPHOMA, Strain/Indicator: L5178Y (TK+/TK-), Metabolic Activation: NONE, Method: SUSPENSION/PLATE) was “active; positive. reevaluation of results: positive”; the mutagenic call (Test System: MOUSE LYMPHOMA, Strain/Indicator: L5178Y (TK+/TK-), Metabolic Activation: RAT, LIVER, S-9, AROCLOR 1254, Method: SUSPENSION/PLATE) was “active; positive. reevaluation of results: positive”.

For the compound `Nc1cccc2c(Cl)nsc12`, under “Test System: AMES SALMONELLA TYPHIMURIUM, Strain/Indicator: TA100, Metabolic Activation: S-9, Method: STANDARD PLATE”, the mutagenic call is “active; positive”.

For the compound `O=[N+]([O-])c1ccc2ccc3nc4ccccc4c4ccc1c2c34`, the mutagenic call was “active; positive” (Test System: AMES SALMONELLA TYPHIMURIUM, Strain/Indicator: TA98(1,8-DNP6), Metabolic Activation: NONE); “active; positive” (Test System: AMES SALMONELLA TYPHIMURIUM, Strain/Indicator: TA98(NR), Metabolic Activation: NONE); “active; positive” (Test System: AMES SALMONELLA TYPHIMURIUM, Strain/Indicator: TA98, Metabolic Activation: NONE).

`O=[N+]([O-])c1c(O)ccc2c1[nH]c1ccccc12`: the mutagenic call was “inactive; negative” under setting [1] and “inactive; negative” under setting [2].
